Laboratory results published in US8586755B2, “Substituted nicotinamides as KCNQ2/3 modulators” (Grünenthal GmbH, priority 2009, dated 2013).

Target: T1, KCNQ2/3 channels (Homo sapiens, UniProt O43525+O43526)
T1 construct: expressed in transfected cells
Assay: Fluorescence assay using a voltage sensitive dye (fluorimetry)
Assay type: cell-based
Conditions: CHO-K1 cells expressing KCNQ2/3 channels; for EC50: agonistic activity; for Fluorimetry % efficacy (retigabine 50 μM = 100%) / Emax: retigabine 50 μM = 100%; for Emax: read-out: Fluorimetry % efficacy (retigabine 50 μM = 100%)
Procedure: Pharmacological Experiments Fluorescence Assay Using a Voltage Sensitive Dye
Human CHO-K1 cells expressing KCNQ2/3 channels are cultivated adherently at 37° C., 5% CO2 and 95% humidity in cell culture bottles (e.g. 80 cm^2 TC flasks, Nunc) with DMEM-high glucose (Sigma Aldrich, D7777) including 10% FCS (PAN Biotech, e.g. 3302-P270521) or alternatively MEM Alpha Medium (1×, liquid, Invitrogen, #22571), 10% fetal calf serum (FCS) (Invitrogen, #10270-106, heat-inactivated) and the necessary selection antibiotics.
Before being sown out for the measurements, the cells are washed with a 1×DPBS buffer without Ca^2+/Mg^2+ (e.g. Invitrogen, #14190-094) and detached from the bottom of the culture vessel by means of Accutase (PAA Laboratories, #L11-007) (incubation with Accutase for 15 min at 37° C.). The cell count then present is determined using a CASY™ cell counter (TCC model, Schärfe System) in order subsequently to apply, depending on the density optimization for the individual cell line, 20,000-30,000 cells/well/100 μl of the described nutrient medium to 96-well measuring plates of the Corning™ CellBIND™ type (Flat Clear Bottom Black Polystyrene Microplates, #3340). Incubation is then carried out for one hour at room temperature, without gassing or adjusting the humidity, followed by incubation for 24 hours at 37° C., 5% CO2 and 95% humidity.
The voltage-sensitive fluorescent dye from the Membrane Potential Assay Kit (Red™ Bulk format part R8123 for FLIPR, MDS Analytical Technologies™) is prepared by dissolving the contents of a vessel Membrane Potential Assay Kit Red Component A in 200 ml of extracellular buffer (ES buffer, 120 mM NaCl, 1 mM KCl, 10 mM HEPES, 2 mM CaCl2, 2 mM MgCl2, 10 mM glucose; pH 7.4). After removal of the nutrient medium, the cells are washed with 200 μl of ES buffer, then covered with a layer of 100 μl of the dye solution prepared above and incubated for 45 min at room temperature with the exclusion of light.
The fluorescence measurements are carried out with a BMG Labtech FLUOstar™ BMG Labtech NOVOstar™ or BMG Labtech POLARstar™ instrument (525 nm excitation, 560 nm emission, Bottom Read mode). After incubation of the dye, 50 μl of the test substances in the desired concentrations, or 50 μl of ES buffer for control purposes, are introduced into separate cavities of the measuring plate and incubated for 30 min at room temperature while being shielded from light. The fluorescence intensity of the dye is then measured for 5 min and the fluorescence value F1 of each well is thus determined at a given, constant time. 15 μl of a […] KCl solution ([…]) are then added to each well. The change in fluorescence is subsequently measured until all the relevant measured values have been obtained (mainly 5-30 min). At a given time after KCl application, a fluorescence value F2 is determined, in this case at the time of the fluorescence peak.
For calculation, the fluorescence intensity F2 is compared with the fluorescence intensity F1, and the agonistic activity of the target compound on the potassium channel is determined therefrom. F2 and F1 are calculated as follows: […]
In order to determine whether a substance has agonistic activity,
A substance has an agonistic activity on the potassium channel when
[formula] it is possible to conclude that a target compound has agonistic activity if an increase in
[formula] is to be observed as the dosage of the target compound increases.
Calculations of EC50 values are carried out with the aid of ‘Prism v4.0’ software (GraphPad Software™).

Row | EC50 [nM] | Fluorimetry % efficacy (retigabine 50 μM = 100%) [%] | Emax [%] | Compound
1 | 170 | 132 | – | O=C(NCc1cccs1)c1cccnc1SCCCc1ccccc1 [compound 1]
2 | 1350 | – | 97 | O=C(NCc1cccs1)c1cccnc1SCCCC1CCCCC1 [compound 2, 2-(3-Cyclohexyl-propylsulfanyl)-N-(thiophen-2-yl-methyl)-pyridine-3-carboxylic acid amide]
3 | – | 53 | – | O=C(CCSc1ncccc1C(=O)NCc1cccs1)c1ccccc1 [compound 3]
4 | 772 | – | 126 | O=C(NCc1cccs1)c1cccnc1SCCOc1cccc(C(F)(F)F)c1 [compound 4, N-(Thiophen-2-yl-methyl)-2-[2-[3-(trifluoromethyl)-phenoxy]-ethylsulfanyl]-pyridine-3-carboxylic acid amide]
5 | 435 | – | 161 | CC(C)CCCSc1ncccc1C(=O)NCc1cccs1 [compound 5, 2-(4-Methyl-pentylsulfanyl)-N-(thiophen-2-yl-methyl)-pyridine-3-carboxylic acid amide]
6 | – | – | 91 | O=C(NCc1cccs1)c1cccnc1CCCCc1ccccc1 [compound 7, 2-(4-Phenyl-butyl)-N-(thiophen-2-yl-methyl)-pyridine-3-carboxylic acid amide]
7 | – | – | 37 | O=C(NCC1CCCCC1)c1cccnc1CCCS(=O)(=O)c1ccccc1 [compound 8, 2-[3-(Benzenesulfonyl)-propyl]-N-(cyclohexyl-methyl)-pyridine-3-carboxylic acid amide]
8 | 1350 | – | 157 | O=C(NCC1CCCCC1)c1cccnc1CCCCc1ccccc1 [compound 9, N-(Cyclohexyl-methyl)-2-(4-phenyl-butyl)-pyridine-3-carboxylic acid amide]
9 | – | – | 13 | O=C(NCc1cccs1)c1cccnc1CCCS(=O)(=O)c1ccccc1 [compound 10, 2-[3-(Benzenesulfonyl)-propyl]-N-(thiophen-2-yl-methyl)-pyridine-3-carboxylic acid amide]
10 | 2920 | – | 170 | O=C(NCc1cccs1)c1cccnc1CCCS(=O)(=O)c1cccc(C(F)(F)F)c1 [compound 12, N-(Thiophen-2-yl-methyl)-2-[3-[[3-(trifluoromethyl)phenyl]sulfonyl]-propyl]-pyridine-3-carboxylic acid amide]
11 | 302 | 200 | – | O=C(NCc1cccs1)c1cccnc1CCCSc1cccc(C(F)(F)F)c1 [compound 13]
12 | 74 | – | 176 | CC(CSc1ncccc1C(=O)NCc1cccs1)Sc1ccccc1 (centres unmarked) [compound 16]
13 | 128 | 176 | – | O=C(NCc1cccs1)c1cccnc1SCCCc1ccc(F)cc1 [compound 17]
14 | 111 | – | 160 | O=C(NCc1cccs1)c1cccnc1SCCCc1cccc(C(F)(F)F)c1 [compound 18, N-(Thiophen-2-yl-methyl)-2-[3-[3-(trifluoromethyl)phenyl]-propylsulfanyl]-pyridine-3-carboxylic acid amide]
15 | 37 | – | 171 | CC(CSc1ncccc1C(=O)NCc1cccs1)Sc1ccc(F)cc1 (centres unmarked) [compound 19, 2-[2-[(4-Fluorophenyl)sulfanyl]-propylsulfanyl]-N-(thiophen-2-yl-methyl)-pyridine-3-carboxylic acid amide]
16 | 49 | – | 174 | CC(CSc1ncccc1C(=O)NCc1cccs1)Sc1cccc(C(F)(F)F)c1 (centres unmarked) [compound 20, N-(Thiophen-2-yl-methyl)-2-[2-[[3-(trifluoromethyl)phenyl]sulfanyl]-propylsulfanyl]-pyridine-3-carboxylic acid amide]
17 | 364 | 126 | – | O=C(NCc1cccs1)c1cccnc1CCCCc1cccc(C(F)(F)F)c1 [compound 21]
18 | 2350 | – | 150 | O=C(NCc1cccs1)c1cccnc1CCCCc1ccc(F)cc1 [compound 22, 2-[4-(4-Fluorophenyl)-butyl]-N-(thiophen-2-yl-methyl)-pyridine-3-carboxylic acid amide]
19 | 3770 | – | 163 | O=C(NCc1cccs1)c1cccnc1CCCSc1ccccc1 [compound 23, 2-(3-Phenylsulfanyl-propyl)-N-(thiophen-2-yl-methyl)-pyridine-3-carboxylic acid amide]
20 | 11 | – | 122 | CC(CSc1ccccc1)Sc1ncccc1C(=O)NCc1cccs1 (centres unmarked) [compound 24, 2-[(1-Methyl-2-phenylsulfanyl-ethyl)sulfanyl]-N-(thiophen-2-yl-methyl)-pyridine-3-carboxylic acid amide]
21 | 1020 | – | 216 | O=C(NCC1CCCCCC1)c1cccnc1CCCCc1cccc(C(F)(F)F)c1 [compound 25, N-(Cycloheptyl-methyl)-2-[4-[3-(trifluoromethyl)phenyl]-butyl]-pyridine-3-carboxylic acid amide]
22 | 126 | – | 244 | O=C(NCC1CC2CCC1C2)c1cccnc1CCCCc1cccc(C(F)(F)F)c1 (centres unmarked) [compound 26, N-(5-Bicyclo[2.2.1]heptanyl-methyl)-2-[4-[3-(trifluoromethyl)phenyl]-butyl]-pyridine-3-carboxylic acid amide]
23 | 1570 | – | 192 | CC(C)CCCSc1ncccc1C(=O)NCC1CC2CCC1C2 (centres unmarked) [compound 28, N-(5-Bicyclo[2.2.1]heptanyl-methyl)-2-(4-methyl-pentylsulfanyl)-pyridine-3-carboxylic acid amide]
24 | 275 | – | 159 | O=C(NCC1CCCCCC1)c1cccnc1CCCSc1ccc(F)cc1 [compound 29, N-(Cycloheptyl-methyl)-2-[3-[(4-fluorophenyl)sulfanyl]-propyl]-pyridine-3-carboxylic acid amide]
25 | 630 | – | 261 | O=C(NCC1CC2CCC1C2)c1cccnc1CCCSc1ccc(F)cc1 (centres unmarked) [compound 30, N-(5-Bicyclo[2.2.1]heptanyl-methyl)-2-[3-[(4-fluorophenyl)sulfanyl]-propyl]-pyridine-3-carboxylic acid amide]
26 | 437 | – | 98 | O=C(NCC1CCCCCC1)c1cccnc1CCCS(=O)(=O)c1cccc(C(F)(F)F)c1 [compound 31, N-(Cycloheptyl-methyl)-2-[3-[[3-(trifluoromethyl)phenyl]sulfonyl]-propyl]-pyridine-3-carboxylic acid amide]
27 | 3130 | – | 191 | O=C(NCC1CC2CCC1C2)c1cccnc1CCCS(=O)(=O)c1cccc(C(F)(F)F)c1 (centres unmarked) [compound 32, N-(5-Bicyclo[2.2.1]heptanyl-methyl)-2-[3-[[3-(trifluoromethyl)phenyl]sulfonyl]-propyl]-pyridine-3-carboxylic acid amide]
28 | 451 | – | 242 | O=C(NCC1CC2CCC1C2)c1cccnc1SCCCc1ccccc1 (centres unmarked) [compound 33, N-(5-Bicyclo[2.2.1]heptanyl-methyl)-2-(3-phenyl-propylsulfanyl)-pyridine-3-carboxylic acid amide]
29 | 463 | – | 204 | O=C(NCC1CC2CCC1C2)c1cccnc1SCCCc1ccc(C(F)(F)F)cc1 (centres unmarked) [compound 34, N-(5-Bicyclo[2.2.1]heptanyl-methyl)-2-[3-[4-(trifluoromethyl)-phenyl]-propylsulfanyl]-pyridine-3-carboxylic acid amide]
30 | 242 | – | 221 | O=C(NCC1CC2CCC1C2)c1cccnc1SCCCc1ccc(Cl)cc1 (centres unmarked) [compound 35, N-(5-Bicyclo[2.2.1]heptanyl-methyl)-2-[3-(4-chlorophenyl)-propylsulfanyl]-pyridine-3-carboxylic acid amide]
